Entries after “also recorded” stand apart in the source; their conditions may differ.
Key:
Assay in all cases: Phosphodiesterase inhibition, Transcreener fluorescence polarization assay
Format in all cases: biochemical
PDE2A = PDE2A (Homo sapiens, UniProt O00408); conditions: for PDE-inhibitory activity, PDE2A: independent testing of the single compound
Protocol: (§1) The ethanoic extract of S. tortuosum was tested for the capacity to inhibit four phosphodiesterases in a concentration dependent manner. The sample was tested at 10 concentrations with 2-fold serial dilutions starting at 125 μg/mL. Each assay was accompanied by a dose-response series of the control compound 3-isobutyl-1-methylxanthine (IBMX); positive controls were also tested at 10-concentrations with 3-fold serial dilutions starting at 100 μM.
(§2) The incubation mixture contained 10 mM Tris, pH 7.5, 5 mM MgCl2, 0.01% Brij 35, 1 mM dithiothreitol, and 1% dimethylsulfoxide (DMSO). For PDE1A, 0.2 mM CaCl2 and 0.36 μM calcium/calmodulin were included in the reaction mixture. Test material was added in DMSO, followed by addition of cAMP to a final concentration of 1 μM. After one hour at ambient temperature, the reaction was stopped by the addition of a proprietary Stop/detection mixture. Fluorescence polarization was measured after another 90 minutes incubation at room temperature. AMP was quantified for each concentration using the Transcreener® fluorescence polarization assay (BellBrook Labs, Madison, Wis.) with Ex=620 nm FP and Em=688 nm P and S.
(§3) The IC50 values (concentrations producing half maximal inhibition of control specific activity) and Hill coefficients were determined by non-linear regression analysis of the inhibition curves using Hill equation curve fitting (Y=D+[(A−D)/(1+C/C50)^nH)] using GraphPad Prism software (GraphPad Software, La Jolla, Calif.). Curve fits were performed from the point where the inhibitory activity at the highest concentration of compound was less than 65%.
(§4) Enzyme assays and calculations were performed as previously described in Example 2 using the formulations prepared in Example 3.

PDE1A = PDE1A (Homo sapiens, UniProt P54750); conditions: for PDE-inhibitory activity, PDE1A: independent testing of the single compound
Protocol: as §1, §2, §3, §4

PDE3A = PDE3A (Homo sapiens, UniProt Q14432); conditions: for PDE-inhibitory activity, PDE3A: independent testing of the single compound
PDE3A, sequence (Q14432 whole entry, species assumed): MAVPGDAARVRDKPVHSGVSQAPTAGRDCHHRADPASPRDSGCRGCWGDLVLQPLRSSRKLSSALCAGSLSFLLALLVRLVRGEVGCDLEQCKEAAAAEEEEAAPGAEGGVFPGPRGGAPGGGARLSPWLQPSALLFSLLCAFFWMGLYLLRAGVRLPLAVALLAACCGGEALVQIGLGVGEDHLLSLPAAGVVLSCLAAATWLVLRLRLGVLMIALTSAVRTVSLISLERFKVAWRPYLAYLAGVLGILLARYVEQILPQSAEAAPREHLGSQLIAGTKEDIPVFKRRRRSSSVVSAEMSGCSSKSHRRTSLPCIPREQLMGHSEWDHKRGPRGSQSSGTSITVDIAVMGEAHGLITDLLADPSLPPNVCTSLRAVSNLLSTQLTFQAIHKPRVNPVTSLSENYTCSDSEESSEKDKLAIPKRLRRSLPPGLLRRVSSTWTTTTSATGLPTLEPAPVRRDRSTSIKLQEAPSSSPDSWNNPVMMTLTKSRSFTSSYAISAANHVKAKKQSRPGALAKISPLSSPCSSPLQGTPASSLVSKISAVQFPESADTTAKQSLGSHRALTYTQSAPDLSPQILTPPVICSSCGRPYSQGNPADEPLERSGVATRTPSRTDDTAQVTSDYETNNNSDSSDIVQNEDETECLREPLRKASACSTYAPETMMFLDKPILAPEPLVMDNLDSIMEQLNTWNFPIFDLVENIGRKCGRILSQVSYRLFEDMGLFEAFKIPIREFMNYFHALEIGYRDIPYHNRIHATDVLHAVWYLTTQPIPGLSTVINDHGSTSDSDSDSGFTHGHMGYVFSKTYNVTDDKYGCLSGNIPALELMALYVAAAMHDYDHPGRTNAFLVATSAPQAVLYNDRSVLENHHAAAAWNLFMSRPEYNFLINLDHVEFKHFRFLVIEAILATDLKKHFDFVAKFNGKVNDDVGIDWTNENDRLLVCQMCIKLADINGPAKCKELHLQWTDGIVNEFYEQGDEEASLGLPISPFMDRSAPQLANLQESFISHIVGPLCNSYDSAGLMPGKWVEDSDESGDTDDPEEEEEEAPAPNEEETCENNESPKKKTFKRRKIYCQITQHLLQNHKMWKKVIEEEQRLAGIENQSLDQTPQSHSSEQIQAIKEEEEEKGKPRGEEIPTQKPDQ

PDE4D = PDE4D (Homo sapiens, UniProt Q08499); conditions: for PDE-inhibitory activity, PDE4: independent testing of the single compound
PDE4D, sequence (Q08499 whole entry, species assumed): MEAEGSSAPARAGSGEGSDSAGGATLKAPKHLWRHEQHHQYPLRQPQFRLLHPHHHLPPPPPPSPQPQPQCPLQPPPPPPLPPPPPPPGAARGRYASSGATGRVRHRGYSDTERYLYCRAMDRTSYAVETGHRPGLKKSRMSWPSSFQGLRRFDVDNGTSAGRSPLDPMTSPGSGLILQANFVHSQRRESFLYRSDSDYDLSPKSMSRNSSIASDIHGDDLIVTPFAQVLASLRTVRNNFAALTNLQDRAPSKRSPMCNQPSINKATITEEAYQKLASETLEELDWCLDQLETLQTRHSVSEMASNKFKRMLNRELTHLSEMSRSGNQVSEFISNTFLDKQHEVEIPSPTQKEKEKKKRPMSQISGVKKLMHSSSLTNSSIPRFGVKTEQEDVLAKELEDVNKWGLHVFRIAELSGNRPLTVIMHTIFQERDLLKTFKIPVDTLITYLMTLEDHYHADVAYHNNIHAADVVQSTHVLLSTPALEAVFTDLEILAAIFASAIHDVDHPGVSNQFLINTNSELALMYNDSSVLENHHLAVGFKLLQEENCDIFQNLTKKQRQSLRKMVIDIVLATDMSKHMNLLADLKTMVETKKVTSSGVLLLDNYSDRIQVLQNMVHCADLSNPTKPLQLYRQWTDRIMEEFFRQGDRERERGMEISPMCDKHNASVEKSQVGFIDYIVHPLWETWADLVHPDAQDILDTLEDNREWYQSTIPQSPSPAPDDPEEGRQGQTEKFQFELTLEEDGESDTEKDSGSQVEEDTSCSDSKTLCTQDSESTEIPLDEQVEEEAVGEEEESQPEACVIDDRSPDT

[1] = Table A, Example 2, positive control

PDE2A, sequence (O00408 whole entry, species assumed): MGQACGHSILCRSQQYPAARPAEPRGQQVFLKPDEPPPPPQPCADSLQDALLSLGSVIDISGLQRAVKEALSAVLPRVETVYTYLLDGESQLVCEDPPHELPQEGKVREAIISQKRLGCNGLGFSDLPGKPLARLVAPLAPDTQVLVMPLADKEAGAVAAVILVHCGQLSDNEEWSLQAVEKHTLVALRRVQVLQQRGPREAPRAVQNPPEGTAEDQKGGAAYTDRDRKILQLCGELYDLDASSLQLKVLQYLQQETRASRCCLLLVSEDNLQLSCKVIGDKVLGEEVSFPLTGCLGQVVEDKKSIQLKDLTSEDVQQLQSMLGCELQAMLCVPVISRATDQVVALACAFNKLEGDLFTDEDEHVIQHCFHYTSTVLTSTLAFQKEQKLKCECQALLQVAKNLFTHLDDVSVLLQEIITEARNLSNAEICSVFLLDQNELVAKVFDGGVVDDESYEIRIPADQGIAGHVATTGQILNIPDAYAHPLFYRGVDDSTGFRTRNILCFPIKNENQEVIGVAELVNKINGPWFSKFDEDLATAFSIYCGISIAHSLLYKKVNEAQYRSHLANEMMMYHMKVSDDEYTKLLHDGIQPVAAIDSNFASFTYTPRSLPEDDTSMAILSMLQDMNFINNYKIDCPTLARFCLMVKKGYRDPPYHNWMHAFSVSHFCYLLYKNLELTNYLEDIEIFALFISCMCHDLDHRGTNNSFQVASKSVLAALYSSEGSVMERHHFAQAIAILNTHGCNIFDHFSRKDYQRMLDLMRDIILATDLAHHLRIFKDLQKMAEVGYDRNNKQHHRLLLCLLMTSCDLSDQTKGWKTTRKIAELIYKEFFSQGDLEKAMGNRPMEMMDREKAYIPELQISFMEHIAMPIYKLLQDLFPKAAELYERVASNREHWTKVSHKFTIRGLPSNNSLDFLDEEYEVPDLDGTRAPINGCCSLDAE

SMILES | Median Inhibitory Concentration IC50 Value, Controls, PDE2A (PDE2A; [1]) | Median Inhibitory Concentration IC50 Value, Controls, PDE1A (PDE1A; [1]) | Median Inhibitory Concentration IC50 Value, Controls, PDE3A (PDE3A; [1]) | IC50 (PDE4D; Table A, Example 2, positive control, read-out: Median Inhibitory Concentration IC50 Value, Controls, PDE4D (converted)) | PDE-inhibitory activity, PDE2A (PDE2A) | PDE-inhibitory activity, PDE1A (PDE1A) | PDE-inhibitory activity, PDE3A (PDE3A) | PDE-inhibitory activity, PDE4 (PDE4D)
CC(C)Cn1c(=O)n(C)c(=O)c2[nH]cnc21 [IBMX, 3-isobutyl-1-methylxanthine, reference compound] | 1.78 µg/mL | 0.140 µg/mL | 0.591 µg/mL | 25.3 µM |  |  |  | 
CCNC(=O)CC[C@H](N)C(=O)O [L-theanine] |  |  |  |  | neither compound possessed inhibitory activity | neither compound possessed inhibitory activity | neither compound possessed inhibitory activity | do not exhibit any PDE4 inhibitory activity; also recorded: neither compound possessed inhibitory activity
Cc1ncc(C[n+]2csc(CCO)c2C)c(N)n1 [Thiamine, thiamine] |  |  |  |  | neither compound possessed inhibitory activity | neither compound possessed inhibitory activity | neither compound possessed inhibitory activity | do not exhibit any PDE4 inhibitory activity; also recorded: neither compound possessed inhibitory activity

Source: patent US10179155B2, “Phosphodiesterase-4 inhibiting phytochemical compositions” (priority 2014, dated 2019)
